# Source: article PMC6182140 (Nucleic Acids Research, 2018)
# Where two headings read alike, the source gives them in different places.
# Tests used:
# [1] = target: PCNA (Homo sapiens) (UniProt P12004); assay: ITC; details: cited from earlier work
# [2] = target: PCNA (Homo sapiens) (UniProt P12004); assay: SPR; details: cited from earlier work
# [3] = tested on: pol η–PCNA holoenzyme; assay: TLS time course of pol η on cisPt(GG) template; assay type: biochemical, human; details: cisPt(GG) template 10 nM, pol η 40 nM; p15 with equimolar PCNA (p15), 10-fold excess PCNA (PCNA), or pol η alone; pH 8, 37°C
# Experimental: (§1) The 24-mer template oligonucleotide containing the cis-PtGG adduct was a kind gift from S.J. Sturla (ETH, Zürich) and was prepared and purified as described previously (Nilforoushan, 2015). All other DNA oligonucleotides, all HPLC purified, were synthesized by Biomers.net (Germany). The 18mer primer oligonucleotide was 5′-labeled with carboxyfluorescin (FAM) group. The labeled primer was mixed to the complementary template oligonucleotide at 1:1 (M/M) ratio in the presence of 150 mM Hepes–KOH pH 7.4, 500 mM KCl, 10 mM MgCl2, 250 mM NH4Ac, heated at 95°C for 5 min and then slowly cooled at room temperature.
# pJM879 ([33]), expressing N-terminal His-tagged human pol η, was a kind gift from R. Woodgate (NIH, USA). Human recombinant pol η was expressed and purified with a modified protocol: BL21 DE3 competent E. coli cells were transformed with pJM879. Plates containing […] kanamycin were used to identify kanamycin-resistant colonies that were picked and grown overnight at 37°C. […] Transformed E. coli cells were used to inoculate a 50 ml starter culture. After overnight growth at 37°C, 12 ml of the starter culture were put into 1 l of LB medium (containing […] kanamycin). After 6 h growth at 37°C, cells were harvested by centrifugation and pellet frozen at –80°C. […]
# [4] = target: DNA; details: cited from earlier work
# Experimental: (§2) Thus, each dNTP insertion step is carried out by a combination of pol η alone and pol η holoenzyme. However, if ...
# [5] = tested on: pol η; assay: DNA synthesis by pol η without PCNA, undamaged control template; assay type: biochemical, human; details: pol η 70 nM, p15 400 nM, no PCNA, control template 10 nM
# Experimental: pJM879 ([33]), expressing N-terminal His-tagged human pol η, was a kind gift from R. Woodgate (NIH, USA). Human recombinant pol η was expressed and purified with a modified protocol: BL21 DE3 competent E. coli cells were transformed with pJM879. Plates containing […] kanamycin were used to identify kanamycin-resistant colonies that were picked and grown overnight at 37°C. DNA purified from bacterial cultures using NucleoSpin® Plasmid (NoLid) kit ([…]-NAGEL, Düren, Germany) was digested to confirm the presence of the gene expressing pol η. Transformed E. coli cells were used to inoculate a 50 ml starter culture. After overnight growth at 37°C, 12 ml of the starter culture were put into 1 l of LB medium (containing […] kanamycin). After 6 h growth at 37°C, cells were harvested by centrifugation and pellet frozen at –80°C. […]
# [6] = tested on: pol η–PCNA holoenzyme; assay: DNA synthesis by pol η on undamaged template; assay type: biochemical, human
# Experimental: as §1
# pJM879 ([33]), expressing N-terminal His-tagged human pol η, was a kind gift from R. Woodgate (NIH, USA). Human recombinant pol η was expressed and purified with a modified protocol: BL21 DE3 competent E. coli cells were transformed with pJM879. Plates containing […] kanamycin were used to identify kanamycin-resistant colonies that were picked and grown overnight at 37°C. […] Transformed E. coli cells were used to inoculate a 50 ml starter culture. After overnight growth at 37°C, 12 ml of the starter culture were put into 1 l of LB medium (containing […] kanamycin). After 6 h growth at 37°C, cells were harvested by centrifugation and pellet frozen at –80°C. The pellet was resuspended in 40ml of lysis buffer (50mM Tris–HCl pH 7.5, 0.3 M NaCl, 20 mM imidazole, 10% glycerol, 10 mM b-mercaptoethanol [BME], 1× lysozime (Eurobio, Courtaboeuf, France), 1× ethylenediaminetetraacetic acid [EDTA]-free protease inhibitor ([…]™ Protease Inhibitor Cocktail Tablets, Sigma-Aldrich), 1 mM phenylmethane sulfonyl fluoride [PMSF] and lysed through sonication. After ultracentrifugation at 98 000g at 4°C for 1.5 h, the supernatant was loaded onto a 1-ml Ni-NTA column (HisTrap™ HP, GE Healthcare). Column washing was performed with 3 ml of W1 buffer ([…] pH 7.5, 1 M NaCl, 20 mM imidazole, 10% glycerol, 10 mM BME) followed by 3 ml of W2 buffer (10 mM Na-phosphate pH 7.7, 0.3 M NaCl, 20 mM imidazole, 10% glycerol, 10 mM BME). Elution of target protein was obtained using buffer H (10 mM Na-phosphate pH 7.7, 0.3 M NaCl, 200 mM imidazole, 10% glycerol, 10 mM BME). The pol η positive fractions (0.5 ml each) were pooled and overnight dialyzed with buffer M (20 mM Na-phosphate pH 7.3, 0.1 M NaCl, 10% glycerol, 10 mM BME), in dialysis cassette (Slide-A-Lyzer™ Dialysis Cassettes, 3.5K MWCO, Thermo Scientific). Pool was then loaded onto a 1-ml cation exchanger column (HiTrap SP, Pharmacia Biotech). Buffer N (20 mM Na-phosphate pH 7.3, 0.5 M NaCl, 10% glycerol, 10 mM BME) was used to elute pol η with a linear gradient. The pol ηpositive fractions (0.5 ml each) were aliquoted and stored at –80°C in 20% final glycerol.
# (§3) All reactions were performed in a 10 μl final volume using the following conditions: 40 mM Tris pH 8, 1 mM dithiotreitol (DTT), 0.25 mg/ml bovine serum albumin (BSA), 10 mM Mg^2+ (unless otherwise stated in the figures or figure legends). Reactions were incubated at 37°C for 15 min, unless otherwise stated. Reaction mixtures were stopped by addition of standard denaturing gel loading buffer (95% formamide, […], xylene cyanol and bromophenol blue), heated at 95°C for 5 min and loaded on a 7-M urea 12% polyacrylamide (PA) gel.
# Figure 4. […] Reactants at the indicated concentrations were incubated at 37°C for 30 s and the reaction was stopped by addition of standard denaturing gel loading buffer.
# [7] = tested on: pol η–PCNA holoenzyme; assay: TLS by pol η on cis-Pt template in the presence of RF-C; assay type: biochemical, human; details: 50 µM dNTPs, 0.5 mM ATP, 150 nM ScRF-C, 400 nM pol η, 400 nM p15, 50 nM PCNA
# Experimental: Recombinant ScRF-C was obtained as a kind gift from the laboratory of Alessandro Costa (Francis Crick Institute), and was prepared following the procedure described in ([34]).
# as §3
# 18/24mer primer-template substrate bearing a cis-Pt adduct at the two guanines at positions +1
# and +2 of the template strand, in the presence of RF-C and in the absence (lanes 10-13) or in the
# Reactant concentrations were: 50
# (1 picture or pasted object on this page, not shown here)
# [8] = target: PCNA; details: read-out: Kd pol η–PCNA (SPR); surface plasmon resonance at 25°C; cited from earlier work
# Experimental: as §2
# Chain of UniProt P12004 (P12004 whole entry): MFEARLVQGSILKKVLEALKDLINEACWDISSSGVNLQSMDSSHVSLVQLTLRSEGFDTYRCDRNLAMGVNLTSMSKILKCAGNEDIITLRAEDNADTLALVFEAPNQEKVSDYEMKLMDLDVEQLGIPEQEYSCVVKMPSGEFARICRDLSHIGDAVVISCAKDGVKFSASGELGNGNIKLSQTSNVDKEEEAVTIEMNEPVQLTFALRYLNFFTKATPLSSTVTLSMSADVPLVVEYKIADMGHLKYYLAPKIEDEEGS
molecule,measurement,setting,value
p15PAF (from UniProt Q15004),Kd,[1],1100 nM
pol η (from UniProt Q9Y253),Kd,[2],400 nM
"p15: PCNA–associated factor, oncogenic 11 kDa intrinsically disordered protein",effect on lesion bypass / nucleotide incorporation,[3],reduced nucleotide incorporation at +2 and +3 positions
same,Kd,[4]; read-out: affinity of p15 for DNA,5000 nM
same,effect of p15 alone on pol η activity,[5],does not affect the activity of the polymerase
same,effect on nucleotide incorporation at initial time point,"[6]; undamaged template 10 nM, with PCNA and p15 equimolar, lane 2, 37°C, pH 8",reduced nucleotide incorporation at position +2
same,effect on synthesis of full-length product,"[6]; undamaged template 10 nM, with PCNA and p15 equimolar, lanes 3–5, 37°C, pH 8",slowed down the synthesis of the full-length product
same,comparison of pol η inhibition by p15 and p15^41–72 in conjunction with PCNA,"[6]; undamaged template, 37°C for 30 s",able to reduce pol η synthesis at comparable levels
same,effect on DNA synthesis in combination with PCNA,"[6]; undamaged template, 37°C for 30 s, with respect to pol η and PCNA alone, synthesis stopped at +1 and +2",reduction of DNA synthesis
same,effect on TLS in the presence of RF-C,[7]; 40 nM cis-Pt 18/24mer,delays TLS by pol η–PCNA across a cis-Pt lesion even in the presence of RF-C
same,accumulated products in the presence of RF-C,[7]; p15 in combination with PCNA,accumulation of +1 and +2 products
"pol η: human recombinant translesion synthesis polymerase η, N-terminal His-tagged (protein, UniProt Q9Y253 1-713, looked up, N-terminal His tag, human recombinant translesion synthesis polymerase η, N-terminal His-tagged) DNA polymerase eta: MATGQDRVVALVDMDCFFVQVEQRQNPHLRNKPCAVVQYKSWKGGGIIAVSYEARAFGVTRSMWADDAKKLCPDLLLAQVRESRGKANLTKYREASVEVMEIMSRFAVIERASIDEAYVDLTSAVQERLQKLQGQPISADLLPSTYIEGLPQGPTTAEETVQKEGMRKQGLFQWLDSLQIDNLTSPDLQLTVGAVIVEEMRAAIERETGFQCSAGISHNKVLAKLACGLNKPNRQTLVSHGSVPQLFSQMPIRKIRSLGGKLGASVIEILGIEYMGELTQFTESQLQSHFGEKNGSWLYAMCRGIEHDPVKPRQLPKTIGCSKNFPGKTALATREQVQWWLLQLAQELEERLTKDRNDNDRVATQLVVSIRVQGDKRLSSLRRCCALTRYDAHKMSHDAFTVIKNCNTSGIQTEWSPPLTMLFLCATKFSASAPSSSTDITSFLSSDPSSLPKVPVTSSEAKTQGSGPAVTATKKATTSLESFFQKAAERQKVKEASLSSLTAPTQAPMSNSPSKPSLPFQTSQSTGTEPFFKQKSLLLKQKQLNNSSVSSPQQNPWSNCKALPNSLPTEYPGCVPVCEGVSKLEESSKATPAEMDLAHNSQSMHASSASKSVLEVTQKATPNPSLLAAEDQVPCEKCGSLVPVWDMPEHMDYHFALELQKSFLQPHSSNPQVVSAVSHQGKRNPKSPLACTNKRPRPEGMQTLESFFKPLTH",effect on lesion bypass / nucleotide incorporation,[3],able to complete the bypass
same,Kd,[4]; read-out: affinity of pol η for DNA,30 nM
same,Kd,[8],400 nM
same,processivity,"[6]; undamaged template 10 nM, pol η alone or with PCNA, 37°C, pH 8",equal processivity
